Laboratory results taken from ChEMBL document CHEMBL1201862, “PubChem BioAssay data set” (2004).
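Five compound concentrations were applied to cells in 96-well plates for 48 hours; endpoints were derived by simple linear interpolation of the resulting dose-response curve. Here, GI50 denotes the concentration required for 50% inhibition of growth.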 The source made the active and inactive calls. No stated cut-off is given here; in the data, active = GI50 up to about 1.1 µM and inactive = higher.

Experiments:
Experiment in all cases: NCI anticancer screen, dose series, 48 h
CAKI-1 = system: CAKI-1
Hs-578T = system: Hs-578T
TK-10 = system: TK-10
A549 = system: A549
SF-268 = system: SF-268
M14 = system: M14
NCI-H23 = system: NCI-H23
UACC-62 = system: UACC-62
PC-3 = system: PC-3
SNB-75 = system: SNB-75
LOX IMVI = system: LOX IMVI
HT-29 = system: HT-29
MOLT-4 = system: MOLT-4
UO-31 = system: UO-31
NCI-H460 = system: NCI-H460
OVCAR-4 = system: OVCAR-4
RXF 393 = system: RXF 393
HOP-92 = system: HOP-92
HL-60 = system: HL-60
HCC 2998 = system: HCC 2998

SMILES | GI50 (CAKI-1) | GI50 (Hs-578T) | GI50 (TK-10) | GI50 (A549) | GI50 (SF-268) | GI50 (M14) | GI50 (NCI-H23) | GI50 (UACC-62) | GI50 (PC-3) | GI50 (SNB-75) | GI50 (LOX IMVI) | GI50 (HT-29) | GI50 (MOLT-4) | GI50 (UO-31) | GI50 (NCI-H460) | GI50 (OVCAR-4) | GI50 (RXF 393) | GI50 (HOP-92) | GI50 (HL-60) | GI50 (HCC 2998)
COc1ccc(C2c3cc4c(cc3OC(N3CCCCC3)C2C)OCO4)cc1 (stereo not drawn) | 36.6 µM (inactive) | 33.6 µM (inactive) | > 100 µM (inactive) | 85.1 µM (inactive) | > 100 µM (inactive) | > 100 µM (inactive) | 58.5 µM (inactive) | > 100 µM (inactive) | > 100 µM (inactive) | 35.6 µM (inactive) | > 100 µM (inactive) | > 100 µM (inactive) | > 100 µM (inactive) | 85.3 µM (inactive) | > 100 µM (inactive) |  |  |  |  | 
C=C1C(=O)C=C[C@]2(C)CC[C@H]3C(=C)C(=O)O[C@@H]3[C@@H]12 | 2.22 µM (inactive) | 4.1 µM (inactive) | 0.419 µM (active) | 11.6 µM (inactive) | 3.15 µM (inactive) | 1.76 µM (inactive) | 2.63 µM (inactive) | 1.96 µM (inactive) | 2.84 µM (inactive) |  | 1.8 µM (inactive) | 1.56 µM (inactive) | 0.52 µM (active) | 1.43 µM (inactive) | 12.1 µM (inactive) | 2.21 µM (inactive) | 1.45 µM (inactive) | 2.87 µM (inactive) | 1.9 µM (inactive) | 
Oc1nc2cc3nc(O)c(O)nc3cc2nc1O | > 100 µM (inactive) | > 100 µM (inactive) | > 100 µM (inactive) | > 100 µM (inactive) | > 100 µM (inactive) | > 100 µM (inactive) | > 100 µM (inactive) | > 100 µM (inactive) | > 100 µM (inactive) | > 100 µM (inactive) | > 100 µM (inactive) | > 100 µM (inactive) | > 100 µM (inactive) | > 100 µM (inactive) | > 100 µM (inactive) |  | > 100 µM (inactive) |  | > 100 µM (inactive) | > 100 µM (inactive)
O=C1CCCc2ccc3c(c21)CC1(Cc2cc4c(cc2C1)CCCC4)C3 |  | 30.4 µM (inactive) | 23.1 µM (inactive) | 22 µM (inactive) | 29 µM (inactive) | 16.9 µM (inactive) | 18.2 µM (inactive) | 20.3 µM (inactive) |  | 20.7 µM (inactive) | 14.6 µM (inactive) | 18.4 µM (inactive) | 14.8 µM (inactive) | 15.7 µM (inactive) | 22.8 µM (inactive) | 22.1 µM (inactive) | 15.6 µM (inactive) | 12.9 µM (inactive) | 6.05 µM (inactive) | 42.9 µM (inactive)
O=C(CN1CCCC1=O)CS(=O)(=O)c1ccccc1 |  | > 100 µM (inactive) | > 100 µM (inactive) | > 100 µM (inactive) | > 100 µM (inactive) | > 100 µM (inactive) | > 100 µM (inactive) | > 100 µM (inactive) | > 100 µM (inactive) | > 100 µM (inactive) | > 100 µM (inactive) | > 100 µM (inactive) | > 100 µM (inactive) | > 100 µM (inactive) | > 100 µM (inactive) |  | > 100 µM (inactive) |  | > 100 µM (inactive) | > 100 µM (inactive)
CC1=NC(=Cc2ccc([N+](=O)[O-])cc2)C(=O)N1n1c(-c2ccccc2)nc2ccccc2c1=O | 35.2 µM (inactive) | 50.2 µM (inactive) | 80.7 µM (inactive) | 47.1 µM (inactive) | 37.8 µM (inactive) | 46.7 µM (inactive) | 21.8 µM (inactive) | 43.3 µM (inactive) | 39.7 µM (inactive) | 15.7 µM (inactive) | 34.7 µM (inactive) | 37 µM (inactive) | 28.8 µM (inactive) | 31.6 µM (inactive) |  |  |  |  | 32.3 µM (inactive) | 57.9 µM (inactive)
O=c1[nH]nc(-c2ccccc2)n1-c1cccc([N+](=O)[O-])c1 | 89.5 µM (inactive) | > 100 µM (inactive) | > 100 µM (inactive) | > 100 µM (inactive) | > 100 µM (inactive) | > 100 µM (inactive) | > 100 µM (inactive) | > 100 µM (inactive) |  | > 100 µM (inactive) | > 100 µM (inactive) | > 100 µM (inactive) | > 100 µM (inactive) | 38.5 µM (inactive) | > 100 µM (inactive) | > 100 µM (inactive) | > 100 µM (inactive) | > 100 µM (inactive) |  | > 100 µM (inactive)
Cc1cccc(Br)[n+]1[O-] | > 100 µM (inactive) | > 100 µM (inactive) | > 100 µM (inactive) | > 100 µM (inactive) | > 100 µM (inactive) | > 100 µM (inactive) | > 100 µM (inactive) | > 100 µM (inactive) | > 100 µM (inactive) | > 100 µM (inactive) | > 100 µM (inactive) | > 100 µM (inactive) | > 100 µM (inactive) | > 100 µM (inactive) | > 100 µM (inactive) | > 100 µM (inactive) | > 100 µM (inactive) | > 100 µM (inactive) |  | 
N[C@@H](Cc1ccc2oc3cc(=O)c4ccccc4c-3nc2c1)C(=O)O | > 100 µM (inactive) | 45.8 µM (inactive) | > 100 µM (inactive) | 40.2 µM (inactive) | > 100 µM (inactive) | 15.3 µM (inactive) | 13.4 µM (inactive) | 27.4 µM (inactive) |  | 15 µM (inactive) | 37.8 µM (inactive) | 31.5 µM (inactive) | 40.7 µM (inactive) | > 100 µM (inactive) | 31.1 µM (inactive) | > 100 µM (inactive) | > 100 µM (inactive) | > 100 µM (inactive) | > 100 µM (inactive) | 
COc1c(C)c(C/C=C(\C)CCCCO)c(OC)c(OC)c1OC | 0.112 µM (active) | > 100 µM (inactive) | > 100 µM (inactive) | 23.7 µM (inactive) | > 100 µM (inactive) | > 100 µM (inactive) | > 100 µM (inactive) | > 100 µM (inactive) | > 100 µM (inactive) | > 100 µM (inactive) | 25.5 µM (inactive) | > 100 µM (inactive) | 73.6 µM (inactive) | > 100 µM (inactive) | 18 µM (inactive) | > 100 µM (inactive) | > 100 µM (inactive) | > 100 µM (inactive) |  | 
[N-]=[N+]=C(C(=O)C(=[N+]=[N-])C(=O)c1ccccc1)C(=O)c1ccccc1 |  | > 100 µM (inactive) | > 100 µM (inactive) | > 100 µM (inactive) | > 100 µM (inactive) | > 100 µM (inactive) | > 100 µM (inactive) | > 100 µM (inactive) | > 100 µM (inactive) | > 100 µM (inactive) | > 100 µM (inactive) | > 100 µM (inactive) |  | 65.5 µM (inactive) | > 100 µM (inactive) |  | > 100 µM (inactive) |  | > 100 µM (inactive) | > 100 µM (inactive)
CCOC(=O)O/N=C1/C(=C2/C(=O)Nc3ccccc32)Nc2ccccc21 | 1.86 µM (inactive) | 2.9 µM (inactive) | 5.35 µM (inactive) | 4.56 µM (inactive) | 5.73 µM (inactive) | 10.3 µM (inactive) | 4.47 µM (inactive) | 8.32 µM (inactive) |  | 3.4 µM (inactive) | 4.8 µM (inactive) | 10.1 µM (inactive) | 3.74 µM (inactive) | 3.65 µM (inactive) | 3.13 µM (inactive) | 6.4 µM (inactive) | 1.24 µM (inactive) | 22.3 µM (inactive) | 4.95 µM (inactive) | 2.73 µM (inactive)
CC(=O)NC1C(OCc2ccccc2)OC(CO)C(O)C1OCC(=O)NC(C)C(=O)NC(CCC(=O)OCCNC(=O)c1cccc2cc3ccccc3nc12)C(N)=O (stereo not drawn) | 14.8 µM (inactive) |  | 16.1 µM (inactive) | 6.11 µM (inactive) | 22.3 µM (inactive) | 20.6 µM (inactive) | 20.7 µM (inactive) | 15.7 µM (inactive) | 27.4 µM (inactive) | 20.5 µM (inactive) | 11.2 µM (inactive) | 13 µM (inactive) | 6.82 µM (inactive) | 14.5 µM (inactive) | 8.95 µM (inactive) | 20.8 µM (inactive) | 16.5 µM (inactive) | 23.2 µM (inactive) | 22.2 µM (inactive) | 18.4 µM (inactive)
CCCCCCCCCCCCCC(=O)O.O=CC(O)C(O)C(OC1OC(CO)C(O)C(O)C1O)C(O)CO (stereo not drawn) | 71.6 µM (inactive) | > 100 µM (inactive) | 37.7 µM (inactive) | 80.2 µM (inactive) | > 100 µM (inactive) | > 100 µM (inactive) | > 100 µM (inactive) | 74.6 µM (inactive) | 73.5 µM (inactive) | > 100 µM (inactive) |  | > 100 µM (inactive) |  | > 100 µM (inactive) | > 100 µM (inactive) | > 100 µM (inactive) | > 100 µM (inactive) | 48.3 µM (inactive) | 18.7 µM (inactive) | 
Cc1ccn2c(CCc3nnc4cc(C)ccn34)nnc2c1 | > 100 µM (inactive) | > 100 µM (inactive) | > 100 µM (inactive) | > 100 µM (inactive) | > 100 µM (inactive) | > 100 µM (inactive) | > 100 µM (inactive) | > 100 µM (inactive) | > 100 µM (inactive) | > 100 µM (inactive) |  | > 100 µM (inactive) | > 100 µM (inactive) | > 100 µM (inactive) | > 100 µM (inactive) | > 100 µM (inactive) | > 100 µM (inactive) | > 100 µM (inactive) | 0.129 µM (active) | 
